Test: Degradation of VC in deionized water over time at different temperatures (FIG. 1)
Assay type: physicochemical
From the text: Vitamin C (VC), also known as L-ascorbic acid, is a main component of common food additives and cosmetics, and can serve as a vitamin supplement and an antioxidant in cosmetics. However, VC is very unstable in neutral or alkaline aqueous solutions.

O=C1O[C@H]([C@@H](O)CO)C(O)=C1O [VC, L-ascorbic acid]
degradation rate of VC (deionized water, 6 h, temperature higher than 50° C.): 80% | VC degrades (degradation) (initial concentration 0.27 mg/mL in deionized water, 25° C., after 12 h): 29%

Source: patent US12268782B2, “Preparation method of fatty acid liposome for VC encapsulation” (Jiangnan University, priority 2020, dated 2025)
